Experimental data reported in patent EP4741379A1, “CLASS OF PROGRAMMED CELL DEATH INHIBITORS, PREPARATION METHOD THEREFOR AND USE THEREOF” (SHANGHAI INSTITUTE OF ORGANIC CHEMISTRY, CHINESE ACADEMY OF …, priority 2023, dated 2025).
Where two headings read alike, the source gives them in different places.

Key:
[1] = test system: FADD-deficient Jurkat cells; assay: TNF-induced programmed necrosis of FADD-deficient Jurkat cells (Cell Titer-Glo viability); format: cell-based, human; conditions: Homo sapiens, Jurkat
Method: (§1) The biological test protocol is adopted to test effects of the compound on TNF-induced programmed necrosis of FADD (Fas-associated death domain)-deficient Jurkat cells and L929 cells.
(§2) Two different stimulation methods were used: treating with tumor necrosis factor (TNFα) alone, or treating with TNFα in combination of mitochondrial-derived cysteine-aspartate activator (SMAC) SM164. Cell viability was determined by measuring chemiluminescence values, thereby assessing the bioactivity of the compounds in inhibiting programmed cell necrosis.
(§3) Method: FADD-deficient Jurkat cells: FADD-deficient Jurkat cells (human peripheral blood leukemia T cell line) were cultured in vitro. After reaching logarithmic growth phase, cells were collected and centrifuged at 1000 rpm for 5 minutes. A supernatant was discarded. A cell concentration was adjusted to 2.5×10^5/mL, and cells were seeded into a 384-well plate at 40 µL per well. In the corresponding wells, 5 µL of SM164 (50 nM) and compounds diluted with cell culture medium were added. After pre-treatment at 37°C for 1 hour, 5 µL of TNFα (50 ng/mL) diluted with cell culture medium was added to each well as a stimulation group, while 5 µL of culture medium was added as a control group. After the plate was incubated in a cell culture incubator (37°C, 5% CO2) for 14 hours, 15 µL of Cell Titer-Glo solution was added to each well. Then, the plate was incubated at room temperature for 30 minutes. Luminescence was measured to assess intracellular ATP levels. Cell viability was set at 100% for unstimulated DMSO control wells. […] The plate was placed in a cell culture incubator (37°C, 5% CO2) and cultured for 12 hours. In the corresponding wells, 5 µL of SM164 (500 nM) and compounds diluted with cell culture medium were added. After pre-treatment at 37°C for 1 hour, 5 µL of TNFα (500 ng/mL) diluted with cell culture medium was added to the wells as a stimulation group, while 5 µL of culture medium was added as a control group. After the plate was incubated in the cell incubator (37°C, 5% CO2) for 14 hours, 15 µL of Cell Titer-Glo solution was added to each well. Then, the plate was incubated at room temperature for 30 minutes, and luminescence was measured to assess intracellular ATP levels. Cell viability was set at 100% for unstimulated DMSO control wells. EC50 values of the compounds were calculated using Prism GraphPad statistical software.

L929 cells = assay: TNF-induced programmed necrosis of L929 cells (Cell Titer-Glo viability); format: cell-based, mouse; conditions: Mus musculus
Method: as §1, §2, §3

[2] = stimulation with TNFα + SM164, read-out: EC50 (nM) FADD^-/- Jurkat cells (human-derived) TNFα+ SM164
[3] = stimulation with TNFα alone, read-out: EC50 (nM) FADD^-/- Jurkat cells (human-derived) TNFα
[4] = L929, stimulation with TNFα + SM164, read-out: EC50 (nM) L929 cells (mouse-derived) TNFα+ SM164
[5] = L929, stimulation with TNFα alone, read-out: EC50 (nM) L929 cells (mouse-derived) TNFα
[6] = read-out: EC50 (nM) FADD^-/- Jurkat cells (human-derived) TNFα
[7] = L929, read-out: EC50 (nM) L929 cells (mouse-derived) TNFα
[8] = L929, stimulation with TNFα + SM164, µM, read-out: EC50 L929 cells (mouse-derived) TNFα+ SM164
[9] = L929, stimulation with TNFα alone, µM, read-out: EC50 L929 cells (mouse-derived) TNFα

Row | Compound | EC50 [1, 2] | EC50 [1, 3] | EC50 (L929 cells; [4]) | EC50 (L929 cells; [5]) | EC50 [1, 6] | EC50 (L929 cells; [7]) | also measured
1 | CN1C(=O)[C@@H](NC(=O)c2n[nH]c(Cc3ccccc3)n2)COc2ccccc21 [GSK2982772, reference compound] | 4 nM | 0.7 nM | > 1000 nM | > 1000 nM | – | – | –
2 | C[C@H](NC(=O)c1nnn(C)c1Cc1ccccc1)c1ccc(C#Cc2nccn2C)cc1 [IRCBC-002] | – | – | – | – | 0.392 nM | 55.7 nM | –
3 | C[C@H](NC(=O)c1nnn(C)c1Cc1ccccc1)c1ccc(C#Cc2ccnn2C)cc1 [IRCBC-003] | – | – | – | – | 0.095 nM | 1.11 nM | –
4 | C[C@H](NC(=O)c1nnn(C)c1Cc1ccccc1)c1ccc(C#Cc2ccn(C)n2)cc1 [IRCBC-004] | – | – | – | – | 0.019 nM | 0.558 nM | –
5 | C[C@H](NC(=O)c1nnn(C)c1Cc1ccccc1)c1ccc(C#Cc2cnc[nH]2)cc1 [IRCBC-005] | 1.12 nM | 0.019 nM | 3.42 nM | 2.09 nM | – | – | –
6 | C[C@H](NC(=O)c1nnn(C)c1Cc1ccccc1)c1ccc(C#Cc2ncc[nH]2)cc1 [IRCBC-006] | – | – | – | – | 2.03 nM | 81.9 nM | –
7 | C[C@H](NC(=O)c1nnn(C)c1Cc1ccccc1)c1ccc(C#Cc2nccs2)cc1 [IRCBC-007] | – | – | – | – | 0.072 nM | 0.631 nM | –
8 | C[C@H](NC(=O)c1nnn(C)c1Cc1ccccc1)c1ccc(C#Cc2ncco2)cc1 [IRCBC-008] | – | – | – | – | 0.055 nM | 1.86 nM | –
9 | C[C@H](NC(=O)c1nnn(C)c1Cc1ccccc1)c1ccc(C#CC2CCOC2)cc1 (some centres unmarked) [IRCBC-010] | 13.4 nM | 0.481 nM | 6.71 nM | 3.27 nM | – | – | –
10 | C[C@H](NC(=O)c1nnn(C)c1Cc1cccc(Cl)c1)c1ccc(C#Cc2ccccn2)cc1 [IRCBC-016] | – | – | – | – | 1.69 nM | 5.85 nM | –
11 | C[C@H](NC(=O)c1cnn(C)c1Cc1cc(F)cc(F)c1)c1ccc(C#Cc2ccccn2)cc1 [IRCBC-033] | 1.57 nM | 0.066 nM | 4.11 nM | 0.771 nM | – | – | –
12 | COC(C)(C)C#Cc1ccc([C@H](C)NC(=O)c2nnn(C)c2Cc2ccccc2)cc1 [IRCBC-036] | – | – | – | – | 0.222 nM | 13.1 nM | –
13 | C[C@H](NC(=O)c1nnn(C)c1Cc1ccccc1)c1ccc(C#Cc2cnn(C3CC3)c2)cc1 [IRCBC-041] | – | – | – | – | 0.004 nM | 0.771 nM | –
14 | C[C@H](NC(=O)c1nnn(C)c1Cc1ccccc1)c1ccc(N2CCN(C)C(=O)C2)cc1 [IRCBC-043] | 5.11 nM | 0.683 nM | – | – | – | – | EC50 (L929 cells; [8]): > 1000 nM; EC50 (L929 cells; [9]): > 1000 nM
15 | C[C@H](NC(=O)c1nnn(C)c1Cc1ccccc1)c1ccc(C#Cc2ncccn2)cc1 [IRCBC-046] | 0.087 nM | 0.001 nM | 0.43 nM | 0.203 nM | – | – | –
16 | C[C@H](NC(=O)c1nnn(C)c1Cc1ccccc1)c1ccc(C#Cc2cnccn2)cc1 [IRCBC-048] | – | – | – | – | 0.018 nM | 2.93 nM | –
17 | C[C@H](NC(=O)c1nnn(C)c1Cc1ccccc1)c1ccc(C#Cc2ccc(F)cn2)cc1 [IRCBC-049] | – | – | – | – | 0.002 nM | 0.118 nM | –
18 | C[C@H](NC(=O)c1nnn(C)c1Cc1ccccc1)c1ccc(C#Cc2ccc(Cl)cn2)cc1 [IRCBC-050] | – | – | – | – | 0.001 nM | 0.105 nM | –
19 | C[C@H](NC(=O)c1nnn(C)c1Cc1ccccc1)c1ccc(C#Cc2ccc(C#N)cn2)cc1 [IRCBC-051] | 0.845 nM | 0.006 nM | 4.53 nM | 1.62 nM | – | – | –
20 | COc1ccc(C#Cc2ccc([C@H](C)NC(=O)c3nnn(C)c3Cc3ccccc3)cc2)nc1 [IRCBC-052] | – | – | – | – | 0.001 nM | 0.068 nM | –
21 | C[C@H](NC(=O)c1nnn(C)c1Cc1ccccc1)c1ccc(C#Cc2ccc(N(C)C)cn2)cc1 [IRCBC-053] | 0.001 nM | – | 0.011 nM | 0.004 nM | – | – | –
22 | C[C@H](NC(=O)c1nnn(C)c1Cc1ccccc1)c1ccc(C#Cc2ccncc2F)cc1 [IRCBC-054] | – | – | – | – | 0.001 nM | 0.103 nM | –
23 | Cn1nnc(C(=O)NCc2ccc(C#Cc3ccccn3)nc2)c1Cc1ccccc1 [IRCBC-057] | 3.9 nM | 0.537 nM | 35.5 nM | 12.6 nM | – | – | –

Row | Compound | EC50 [1, 2] | EC50 [1, 3] | EC50 (L929 cells; [4]) | EC50 (L929 cells; [5]) | EC50 [1, 6] | EC50 (L929 cells; [7]) | also measured
24 | Cn1nnc(C(=O)NCc2ccc(C#Cc3ccccn3)c(F)c2)c1Cc1ccccc1 [IRCBC-058] | 1.25 nM | 0.018 nM | 35.2 nM | 1.5 nM | – | – | –
25 | Cn1nnc(C(=O)NCc2ccc(C#Cc3ccccn3)cc2F)c1Cc1ccccc1 [IRCBC-059] | 2.26 nM | 0.025 nM | 14.8 nM | 3.07 nM | – | – | –
26 | C[C@H](NC(=O)c1nnn(C)c1Cc1ccccc1F)c1ccc(C#Cc2ccccn2)cc1 [IRCBC-067] | 0.261 nM | 0.004 nM | 0.887 nM | 0.264 nM | – | – | –
27 | C[C@H](NC(=O)c1nnn(C)c1Cc1ccc(C#N)cc1)c1ccc(C#Cc2ccccn2)cc1 [IRCBC-071] | 0.641 nM | 0.006 nM | 2.99 nM | 0.914 nM | – | – | –
28 | C[C@H](NC(=O)c1nnn(C)c1Cc1cccc(C#N)c1)c1ccc(C#Cc2ccccn2)cc1 [IRCBC-072] | 2.73 nM | 0.049 nM | 17.3 nM | 1.79 nM | – | – | –
29 | C[C@H](NC(=O)c1nnn(C)c1Cc1ccccc1)c1ccc(C#Cc2c(F)cncc2F)cc1 [IRCBC-091] | 0.145 nM | 0.004 nM | 1.29 nM | 0.455 nM | – | – | –
30 | C[C@H](NC(=O)c1nnn(C)c1Cc1ccccc1)c1ccc(C#Cc2ccncc2Cl)cc1 [IRCBC-093] | – | – | – | – | 0.001 nM | 0.374 nM | –
31 | C[C@H](NC(=O)c1nnn(C)c1Cc1ccccc1)c1ccc(C#Cc2ccncc2C#N)cc1 [IRCBC-094] | 0.304 nM | 0.001 nM | 2.16 nM | 0.403 nM | – | – | –
32 | COc1cnc(C#Cc2ccc([C@H](C)NC(=O)c3nnn(C)c3Cc3ccccc3)cc2)nc1 [IRCBC-095] | 0.002 nM | – | 0.052 nM | 0.01 nM | – | – | –
33 | C[C@H](NC(=O)c1nnn(C)c1Cc1ccccc1)c1ccc(C#Cc2ccc(C(F)(F)F)cn2)cc1 [IRCBC-096] | 0.406 nM | 0.006 nM | – | – | – | – | EC50 (L929 cells; [8]): > 1000 nM; EC50 (L929 cells; [9]): > 1000 nM
34 | C[C@H](NC(=O)c1nnn(C)c1Cc1ccccc1)c1ccc(C#Cc2ncc(N(C)C)cn2)cc1 [IRCBC-097] | – | – | 0.003 nM | 0.001 nM | – | – | –
35 | CNc1ccc(C#Cc2ccc([C@H](C)NC(=O)c3nnn(C)c3Cc3ccccc3)cc2)nc1 [IRCBC-102] | – | – | 0.018 nM | 0.01 nM | – | – | –
36 | C[C@H](NC(=O)c1nnn(C)c1Cc1ccccc1)c1ccc(C#Cc2ccc(N3CCOCC3)cn2)cc1 [IRCBC-105] | – | – | 0.004 nM | 0.008 nM | – | – | –
37 | C[C@H](NC(=O)c1nnn(C)c1Cc1ccccc1)c1ccc(C#Cc2ncc3nc[nH]c3n2)cc1 [IRCBC-129] | – | – | 0.196 nM | 0.06 nM | – | – | –
38 | CC(C)Nc1ccc(C#Cc2ccc([C@H](C)NC(=O)c3nnn(C)c3Cc3ccccc3)cc2)nc1 [IRCBC-146] | – | – | 0.0014 nM | – | – | – | –
39 | [2H]C([2H])([2H])Nc1ccc(C#Cc2ccc([C@H](C)NC(=O)c3nnn(C)c3Cc3ccccc3)cc2)nc1 [IRCBC-150] | – | – | 0.001 nM | 0.001 nM | – | – | –
40 | C[C@H](NC(=O)c1nnn(C)c1Cc1ccccc1)c1ccc(C#Cc2ncc(N3CCOCC3)cc2C#N)cc1 [IRCBC-154] | – | – | 0.002 nM | – | – | – | –
41 | CNc1cnc(C#Cc2ccc([C@H](C)NC(=O)c3nnn(C)c3Cc3ccccc3)cc2)nc1 [IRCBC-160] | – | – | 0.00234 nM | – | – | – | –
42 | C[C@H](NC(=O)c1nnn(C)c1Cc1ccccc1)c1ccc(C#Cc2ncc(N)cn2)cc1 [IRCBC-161] | – | – | 0.002 nM | 0.002 nM | – | – | –
43 | [2H]C([2H])([2H])Nc1cnc(C#Cc2ccc([C@H](C)NC(=O)c3nnn(C)c3Cc3ccccc3)cc2)nc1 [IRCBC-256] | – | – | 0.00121 nM | – | – | – | –
44 | [2H]C([2H])([2H])Nc1cnc(C#Cc2ccc([C@H](C)NC(=O)c3nnn(C)c3Cc3ccccc3)cc2)c(C#N)c1 [IRCBC-257] | – | – | 0.00117 nM | – | – | – | –
45 | C[C@H](NC(=O)c1nnn(C)c1Cc1ccccc1)c1ccc(C#Cc2ncc(N3CC(N(C)C)C3)cn2)cc1 [IRCBC-259] | – | – | 0.001 nM | – | – | – | –
46 | CC(C)Nc1cnc(C#Cc2ccc([C@H](C)NC(=O)c3nnn(C)c3Cc3ccccc3)cc2)nc1 [IRCBC-269] | 0.00168 nM | – | – | – | – | – | –
